How the values were obtained:
Assay type in all cases: ADME, organism-based
Design in all cases: dose 10 mg/kg, route intravenous
[1] = Cmax in CD1 mouse at 10 mg/kg, iv bid; conditions: in vivo
[2] = Volume of distribution in CD1 mouse at 10 mg/kg, iv bid; conditions: in vivo
[3] = AUC in CD1 mouse at 10 mg/kg, iv bid; conditions: plasma
[4] = Clearance in CD1 mouse at 10 mg/kg, iv bid; conditions: in vivo
[5] = Half life in CD1 mouse at 10 mg/kg, iv bid; conditions: in vivo

Cmax [1]: 9 µM
Vd [2]: 16 L/kg
AUC [3]: 9 µM·h
clearance [4]: 50 mL/min/kg
half-life [5]: 7 h
SMILES: O=C(Nc1n[nH]c2cc(C(=O)N[C@H](CN3CCCC3)c3ccccc3)sc12)c1ccc(N2CCOCC2)cc1

From ChEMBL document CHEMBL1255180, “Thieno[3,2-c]pyrazoles: a novel class of Aurora inhibitors with favorable antitumor activity” (Bioorg Med Chem, 2010)
